Assay results taken from ChEMBL document CHEMBL6177931, “Exploring diverse frontiers: Advancements of bioactive 4-aminoquinoline-based molecular hybrids in targeted therapeutics and beyond” (Eur J Med Chem, 2024).
In brackets after ≈: the same amount, converted by molar mass.

Assays:
[1] = tested on: Mycobacterium tuberculosis; assay: Antitubercular activity against Mycobacterium tuberculosis H37Rv assessed as inhibition of visible bacterial growth incubated for 7 days by broth microdilution method; format: functional; conditions: 168 h, time 7 day
[2] = tested on: HepG2; assay: Cytotoxicity against human HepG2 cells assessed as cell viability incubated for 24 hrs by MTT assay relative to control; format: functional
[3] = tested on: Staphylococcus aureus; assay: Antibacterial activity against Staphylococcus aureus ATCC 8739 incubated for 24 hrs by broth microdilution method; format: functional
[4] = tested on: SGC-7901; assay: Antiproliferative activity against human SGC-7901 cells incubated for 24 hrs by MTT assay; format: functional, cell-based; conditions: SGC-7901, 24 h
[5] = tested on: A549; assay: Antiproliferative activity against human A549 cells assessed as reduction in cell viability incubated for 24 hrs by MTT assay; format: functional, cell-based; conditions: A549, 24 h
[6] = tested on: Escherichia coli; assay: Antibacterial activity against Escherichia coli ATCC 29213 incubated for 24 hrs by broth microdilution method; format: functional
[7] = Cytotoxicity against human L02 cells incubated for 24 hrs by MTT assay; format: toxicity, cell-based
[8] = tested on: HeLa; assay: Antiproliferative activity against human HeLa cells incubated for 24 hrs by MTT assay; format: functional, cell-based
[9] = Cytotoxicity against African green monkey Vero cells assessed as reduction in cell viability incubated for 3 to 10 days by MTS assay; format: toxicity, cell-based; conditions: chlorocebus sabaeus, time 3-10 day
[10] = Anticancer activity against human DND41 cells assessed as cell growth inhibition incubated for 72 hrs by CellTiter96 aqueous Non-Radioactive Cell Proliferation Assay; format: functional
[11] = tested on: NCI-H460; assay: Anticancer activity against human NCI-H460 cells assessed as cell growth inhibition incubated for 72 hrs by MTT assay; format: functional
[12] = tested on: Coxsackievirus; assay: Antiviral activity against Coxsackievirus B4 infected in human HEp-2 cells assessed as reduction in virus-induced cytopathic effect incubated for 3 to 10 days by MTS assay; format: functional, organism-based; conditions: B4, HEp-2
[13] = tested on: HCT-116; assay: Anticancer activity against human HCT-116 cells assessed as cell growth inhibition incubated for 72 hrs by MTT assay; format: functional
[14] = tested on: Z-138; assay: Anticancer activity against human Z138 cells assessed as cell growth inhibition incubated for 72 hrs by CellTiter96 aqueous Non-Radioactive Cell Proliferation Assay; format: functional
[15] = tested on: Zika virus; assay: Antiviral activity against Zika virus infected in African green monkey Vero cells assessed as reduction in virus-induced cytopathic effect incubated for 3 to 10 days by MTS assay; format: functional, organism-based
[16] = tested on: K562; assay: Anticancer activity against human K562 cells assessed as cell growth inhibition incubated for 72 hrs by CellTiter96 aqueous Non-Radioactive Cell Proliferation Assay; format: functional
[17] = tested on: LN-229; assay: Anticancer activity against human LN-229 cells assessed as cell growth inhibition by MTS assay; format: functional
[18] = tested on: CAPAN-1; assay: Anticancer activity against human CAPAN-1 cells assessed as cell growth inhibition by MTS assay; format: functional
[19] = tested on: HL-60; assay: Anticancer activity against human HL-60 cells assessed as cell growth inhibition incubated for 72 hrs by CellTiter96 aqueous Non-Radioactive Cell Proliferation Assay; format: functional
[20] = Cytotoxicity against human HEp-2 cells assessed as reduction in cell viability incubated for 3 to 10 days by MTS assay; format: toxicity, cell-based; conditions: time 3-10 day
[21] = tested on: MCF7; assay: Antiproliferative activity against human MCF7 cells assessed as cell growth inhibition incubated for 72 hrs by MTT assay; format: functional
[22] = target: Cholinesterases; ACHE & BCHE (Homo sapiens) (UniProt P06276+P22303); assay: Selectivity ratio of IC50 for inhibition of human BchE to IC50 for inhibition of recombinant human AchE; format: protein assay
[23] = tested on: SMMC-7721; assay: Antiproliferative activity against human SMMC-7721 cells assessed as reduction in cell proliferation incubated for 24 hrs by MTT assay; format: functional, cell-based; conditions: SMMC-7721, 24 h
[24] = tested on: HepG2; assay: Antiproliferative activity against human HepG2 cells assessed as reduction in cell proliferation incubated for 24 hrs by MTT assay; format: functional, cell-based; conditions: HepG2, 24 h
[25] = tested on: Huh-7; assay: Antiproliferative activity against human Huh-7 cells assessed as reduction in cell proliferation incubated for 24 hrs by MTT assay; format: functional, cell-based; conditions: Huh-7, 24 h
[26] = tested on: Candida albicans; assay: Antifungal activity against Candida albicans incubated for 48 to 72 hrs by broth microdilution method; format: functional; conditions: time 48-72 hrs
[27] = tested on: Aspergillus fumigatus; assay: Antifungal activity against Aspergillus fumigatus incubated for 48 to 72 hrs by broth microdilution method; format: functional; conditions: time 48-72 hrs
[28] = tested on: Aspergillus niger; assay: Antifungal activity against Aspergillus niger incubated for 48 to 72 hrs by broth microdilution method; format: functional; conditions: time 48-72 hrs
[29] = tested on: SARS-CoV; assay: Antiviral activity against SARS-CoV 2019-nCoV infected in african green monkey Vero E6 cells; format: functional; conditions: Severe acute respiratory syndrome-related coronavirus, Vero C1008
[30] = Inhibition of ConA-induced IL-6 secretion in female BALB/c mouse splenocyte incubated for 48 hrs by ELISA; format: functional, cell-based
[31] = Inhibition of ConA-induced TNF-alpha secretion in female BALB/c mouse splenocyte incubated for 48 hrs by ELISA; format: functional, cell-based
[32] = Inhibition of ConA-induced IL-1beta secretion in female BALB/c mouse splenocyte incubated for 48 hrs by ELISA; format: functional, cell-based
[33] = tested on: Curvularia lunata; assay: Antifungal activity against Curvularia lunata incubated for 72 hrs by mycelium growth rate method; format: functional, organism-based
[34] = tested on: Pyricularia grisea; assay: Antifungal activity against Pyricularia grisea incubated for 72 hrs by mycelium growth rate method; format: functional, organism-based
[35] = tested on: Alternaria alternata; assay: Antifungal activity against Alternaria alternata incubated for 72 hrs by mycelium growth rate method; format: functional, organism-based
[36] = tested on: MCF7; assay: Anticancer activity against human MCF7 cells; format: functional, cell-based
[37] = tested on: HeLa; assay: Anticancer activity against human HeLa cells; format: functional, cell-based
[38] = tested on: HepG2; assay: Anticancer activity against human HepG2 cells incubated for 48 hrs by MTT assay; format: functional, cell-based; conditions: HepG2, 48 h
[39] = tested on: MGC-803; assay: Antiproliferative activity against human MGC-803 cells incubated for 48 hrs by MTT assay; format: functional, cell-based; conditions: MGC-803, 48 h
[40] = tested on: T-24; assay: Antiproliferative activity against human T24 cells incubated for 48 hrs by MTT assay; format: functional, cell-based; conditions: T-24, 48 h
[41] = tested on: L02; assay: Antiproliferative activity against human HL7702 cells incubated for 48 hrs by MTT assay; format: functional, cell-based; conditions: L02, 48 h
[42] = tested on: NCI-H460; assay: Antiproliferative activity against human NCI-H460 cells incubated for 48 hrs by MTT assay; format: functional, cell-based; conditions: NCI-H460, 48 h
[43] = tested on: MGC-803; assay: Antitumor activity against human MGC-803 cells xenografted in male BALB/c nude mouse assessed as suppression of tumor growth at 12 mg/kg, ip administered per 2 days relative to control; format: functional
[44] = tested on: Plasmodium falciparum; assay: Antiplasmodial activity against chloroquine sensitive Plasmodium falciparum NF54 incubated for 48 hrs by lactate dehydrogenase assay; format: functional, organism-based; conditions: NF54, Erythrocyte

Sequence of Cholinesterases; ACHE & BCHE (Homo sapiens) (P06276 whole entry, looked up): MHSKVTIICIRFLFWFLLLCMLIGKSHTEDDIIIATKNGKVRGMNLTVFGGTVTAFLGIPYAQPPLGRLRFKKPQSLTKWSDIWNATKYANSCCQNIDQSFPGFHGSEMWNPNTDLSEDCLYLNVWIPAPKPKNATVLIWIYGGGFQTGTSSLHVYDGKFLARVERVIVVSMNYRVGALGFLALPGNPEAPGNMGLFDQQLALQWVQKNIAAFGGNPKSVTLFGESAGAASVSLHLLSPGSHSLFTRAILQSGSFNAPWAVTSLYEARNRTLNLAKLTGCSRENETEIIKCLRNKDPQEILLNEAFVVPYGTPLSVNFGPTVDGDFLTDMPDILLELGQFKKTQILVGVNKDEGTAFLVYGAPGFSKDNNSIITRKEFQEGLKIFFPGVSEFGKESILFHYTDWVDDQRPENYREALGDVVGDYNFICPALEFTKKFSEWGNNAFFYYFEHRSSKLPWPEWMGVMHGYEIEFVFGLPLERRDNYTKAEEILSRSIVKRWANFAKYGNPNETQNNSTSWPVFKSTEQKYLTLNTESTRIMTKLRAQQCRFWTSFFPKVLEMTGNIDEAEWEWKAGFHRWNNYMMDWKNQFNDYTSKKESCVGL
Sequence of Cholinesterases; ACHE & BCHE (Homo sapiens) (P22303 whole entry, looked up): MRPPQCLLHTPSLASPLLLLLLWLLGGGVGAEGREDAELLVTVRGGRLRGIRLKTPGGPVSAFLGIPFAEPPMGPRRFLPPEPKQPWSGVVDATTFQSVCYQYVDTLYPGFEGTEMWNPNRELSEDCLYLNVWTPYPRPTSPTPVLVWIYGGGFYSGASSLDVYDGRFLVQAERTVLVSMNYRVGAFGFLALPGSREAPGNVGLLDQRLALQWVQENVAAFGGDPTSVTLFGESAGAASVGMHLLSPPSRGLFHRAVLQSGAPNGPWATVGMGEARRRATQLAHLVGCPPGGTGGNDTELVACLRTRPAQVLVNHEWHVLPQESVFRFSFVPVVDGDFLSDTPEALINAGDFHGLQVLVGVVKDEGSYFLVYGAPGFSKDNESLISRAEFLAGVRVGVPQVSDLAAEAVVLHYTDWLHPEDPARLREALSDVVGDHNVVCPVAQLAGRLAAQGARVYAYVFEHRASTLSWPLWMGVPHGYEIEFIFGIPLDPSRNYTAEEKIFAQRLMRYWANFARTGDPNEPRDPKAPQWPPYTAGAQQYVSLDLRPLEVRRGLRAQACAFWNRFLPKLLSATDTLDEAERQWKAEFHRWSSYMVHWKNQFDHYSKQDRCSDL

**Q.** Which MIC [1] does the source give for `CC(CNc1ccnc2cc(Cl)ccc12)NC(=O)Nc1nc2ccc(C(F)(F)F)cc2s1` (stereo not given) here?
**A.** 0.968 µM (≈ 0.465 µg/mL)

**Q.** What about the Activity [2] of the same compound?
**A.** 100%

**Q.** With `CCC[n+]1cc(C(=O)OCC)c(Nc2ccc(OCc3ccccc3)cc2)c2cc3c(cc21)OCO3` as the compound, how does the MIC [3] read?
**A.** 3.12 µM

**Q.** And the IC50 [4]?
**A.** 17.6 µM

**Q.** And the IC50 [5]?
**A.** 5.18 µM

**Q.** And the MIC [6]?
**A.** 3.12 µM

**Q.** And the IC50 at 24 h [7]?
**A.** 54.5 µM

**Q.** What about the IC50 [8] of the same compound?
**A.** 7.62 µM

**Q.** Which results are given for `C/C(=C\C(=O)NCCCCNc1cc(C(F)(F)F)nc2c(C(F)(F)F)cccc12)C(=O)NCCCCNc1cc(C(F)(F)F)nc2c(C(F)(F)F)cccc12`?
**A.** CC50 [9]: 10 µM; GI50 [10]: 7.9 µM; GI50 [11]: 3000 nM; EC50 [12]: 850 nM; GI50 [13]: 2400 nM; GI50 [14]: 6.9 µM; EC50 [15]: 850 nM; GI50 [16]: 8.6 µM; GI50 [17]: 2400 nM; GI50 [18]: 2300 nM; GI50 [19]: 2600 nM; CC50 [20]: 6.7 µM; GI50 [21]: 700 nM

**Q.** For `Clc1ccc2c(Nc3cccc4c(NCCC56CC7CC(CC(C7)C5)C6)cccc34)ccnc2c1`, which Ratio IC50 [22] is on record?
**A.** 5.8

**Q.** What does the source list for `O=C(N/N=C/c1cc(O)ccc1O)c1ccc(Nc2ccnc3ccccc23)cc1`?
**A.** IC50 [23]: > 50 µM; IC50 [24]: 23.7 µM; IC50 [25]: 18.6 µM

**Q.** What does the source list for `NCCCNc1nc(NCCCN)nc(NC(=S)NNc2ccnc3cc(Cl)ccc23)n1`?
**A.** MIC [26]: 8 µg/mL (≈ 16.8 µM); MIC [27]: 8 µg/mL (≈ 16.8 µM); MIC [28]: 8 µg/mL (≈ 16.8 µM)

**Q.** Which EC90 [29] does the source give for `CCN(CC)CCCC(C)Nc1ccnc2cc(Cl)ccc12` (stereo not given) [CHLOROQUINE] here?
**A.** 6.9 µM

**Q.** What about the IC50 [30] of the same compound?
**A.** 14.6 µM

**Q.** And the IC50 [31]?
**A.** 35 µM

**Q.** And the IC50 [32]?
**A.** 2720 nM

**Q.** What does the source list for `Cl.Clc1ccc(Nc2cc(-c3ccccc3)nc3ccccc23)cc1`?
**A.** EC50 [33]: 13.3 µg/mL; EC50 [34]: 14.4 µg/mL; EC50 [35]: 15.6 µg/mL

**Q.** Which results are given for `C[C@H]1[C@H](C)CC[C@]2(C(=O)OCCNc3ccnc4cc(Cl)ccc34)CC[C@]3(C)C(=CC[C@@H]4[C@@]5(C)CC[C@H](O)C(C)(C)[C@@H]5CC[C@]43C)[C@H]12`?
**A.** IC50 [36]: 48.2 µg/mL (≈ 72.8 µM); IC50 [37]: 105 µg/mL (≈ 158 µM)

**Q.** For `CN(C)CCCNc1c(-c2nc3ccccc3s2)cnc2ccccc12`, which IC50 [38] is on record?
**A.** 4.88 µM

**Q.** What about the IC50 [39] of the same compound?
**A.** 2200 nM

**Q.** And the IC50 [40]?
**A.** 3.17 µM

**Q.** What about the IC50 [41] of the same compound?
**A.** 10.9 µM

**Q.** And the IC50 [42]?
**A.** 3.22 µM

**Q.** And the Activity [43]?
**A.** 42.4%

**Q.** With `O=C(/C=C/c1ccccc1Br)c1ccc(S(=O)(=O)NCCCNc2ccnc3cc(Cl)ccc23)cc1` as the compound, how does the IC50 [44] read?
**A.** 100 nM

**Q.** With `O=C(/C=C/c1ccc(Cl)cc1)c1ccc(S(=O)(=O)NCCCNc2ccnc3cc(Cl)ccc23)cc1` as the compound, how does the IC50 [44] read?
**A.** 100 nM
